Data as given in patent publication US9868728B2, “Quinazoline derivatives, compositions, and uses related thereto” (Emory University, priority 2010, dated 2018).

Target: T1, NOX2 (Homo sapiens, UniProt P04839)
T1 construct: isolated plasma membranes from human neutrophils as a source for Nox2-p22phox; from tissue; host or cells: Plasma membranes of human neutrophils (Nox2-p22phox); cytosolic factors recombinant from E. coli
T1 sequence (P04839 2-570 limits assumed): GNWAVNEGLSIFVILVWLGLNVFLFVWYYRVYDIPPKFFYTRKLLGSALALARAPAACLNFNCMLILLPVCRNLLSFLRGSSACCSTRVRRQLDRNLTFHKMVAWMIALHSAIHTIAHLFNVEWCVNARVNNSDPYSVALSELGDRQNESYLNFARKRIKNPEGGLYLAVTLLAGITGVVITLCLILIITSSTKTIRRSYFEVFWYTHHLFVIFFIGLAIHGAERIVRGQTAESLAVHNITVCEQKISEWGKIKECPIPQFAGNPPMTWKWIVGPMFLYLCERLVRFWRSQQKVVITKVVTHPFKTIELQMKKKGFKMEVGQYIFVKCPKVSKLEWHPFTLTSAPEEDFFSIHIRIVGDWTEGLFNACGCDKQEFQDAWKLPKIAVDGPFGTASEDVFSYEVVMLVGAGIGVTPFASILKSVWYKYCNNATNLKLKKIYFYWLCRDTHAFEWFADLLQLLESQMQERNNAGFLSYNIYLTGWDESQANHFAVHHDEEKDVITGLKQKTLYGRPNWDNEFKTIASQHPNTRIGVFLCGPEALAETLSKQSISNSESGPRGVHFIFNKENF
T1 sequence (P13498 2-195 partner limits assumed): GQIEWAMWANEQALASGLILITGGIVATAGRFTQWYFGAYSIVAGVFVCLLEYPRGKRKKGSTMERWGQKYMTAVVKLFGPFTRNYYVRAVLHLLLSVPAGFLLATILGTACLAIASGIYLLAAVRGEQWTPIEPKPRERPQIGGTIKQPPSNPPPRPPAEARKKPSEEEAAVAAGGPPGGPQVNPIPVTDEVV
Assay: Nox2 cell-free assay (LO12 luminescence)
Type: biochemical
Details: Nox2 cell-free system; for IC50: read-out: NOX2 IC50 (concentration giving half-maximal inhibition); for Emax: read-out: % inhibition (maximum inhibition achieved at a very high concentration of the compound)
Experimental: The following compounds were tested according to the procedures provided in the experimental section. Assays were carried out using the Nox2 cell-free system. The IC50 value is the concentration giving half-maximal inhibition, while the “% inhibition” shown in parentheses is the maximum inhibition achieved at a very high concentration of the compound. 100% refers to complete inhibition within experimental error of the assay.
In certain assays a Cell-Free recombinant NOX-2 system (consisting of isolated plasma membranes from human neutrophils as a source for Nox2-p22phox, supplemented with recombinant p47phox, p67phox and Rac1Q61L (activated Rac), expressed in and isolated from of E. coli. LO12 luminescence was used as a readout to monitor enzymatic activity.
Plasma membranes were prepared from human neutrophils, which express large amounts of Nox2 and stored at −80 C until use. Membranes are mixed with recombinant, purified cytosolic regulatory proteins (p67Np47 chimera, and constitutively active Rac1 mutant Q61) and FAD, along with varying concentrations of compound, and LO12, which luminesces when it reacts with ROSvi. The reaction is started by addition of NADPH and SDS (an artificial stimulus for Nox2). See Curnutte et al., (1987) J. Biol. Chem. 262: 6450-6452.

IC50	Emax (value in parentheses)	NOX2 IC50 (concentration giving half-maximal inhibition)	% inhibition (maximum inhibition achieved at a very high concentration of the compound) (value in parentheses)	Structure (SMILES)
1 µM				CCOc1cc2c(=O)n(N)c(=S)[nH]c2cc1OC [AS2-001]
0.6 µM				Nn1c(=S)[nH]c2cc3c(cc2c1=O)OCCO3 [AS2-014a]
0.6 µM				Nn1c(=S)[nH]c2cc3c(cc2c1=O)OCO3 [AS2-014b]
> 10 µM				O=C(O)CCCn1c(SCC(=O)Nc2nc(-c3ccccc3)cs2)nc2ccccc2c1=O [AS140]
> 10 µM				CCCCn1c(SCC(=O)Nc2cc(-c3ccc(C)cc3)no2)nc2ccccc2c1=O [AS153a]
8 µM	100%			CN(C)CCCn1c(SCC(=O)Nc2cc(-c3ccc(Cl)cc3)no2)nc2ccccc2c1=O [AS154b]
5 µM	100%			CN(C)CCCn1c(SCC(=O)Nc2nc(-c3ccc(Br)cc3)cs2)nc2ccccc2c1=O [AS158a]
> 10 µM	80%			CCN(CC)CCCn1c(SCC(=O)Nc2nc(-c3cccc(C(F)(F)F)c3)cs2)nc2ccccc2c1=O [AS165b]
> 20 µM	40%			CCCN(CCC)CCCn1c(SCC(=O)Nc2nc(-c3cccc(Br)c3)cs2)nc2ccccc2c1=O [AS173b]
		Not active		CN(C)CCCn1c(SCC(=O)Nc2nc(-c3cccc(C#N)c3)cs2)nc2ccccc2c1=O [AS188]
3 µM	100%			CN(C)CCCCn1c(SCC(=O)Nc2nc(-c3cccc(Br)c3)cs2)nc2ccccc2c1=O [AS195]
1.8 µM				Nn1c(=S)[nH]c2ccccc2c1=O [AS-247]
12.7 µM				Nn1c(SCC(=O)Nc2nc(-c3ccc(Br)cc3)cs2)nc2ccccc2c1=O [AS-248]
15 µM				CN(C)CCCn1c(SCC(=O)Nc2nc(-c3ccc(Br)cc3)cs2)nc2ccsc2c1=O [AS-256]
7.5 µM				CN(C)CCCn1c(=S)[nH]c2c(c1=O)CCCC2 [AS-259]
17.5 µM				CN(C)CCCn1c(SCC(=O)Nc2nc(-c3ccc(Br)cc3)cs2)nc2c(c1=O)CCCC2 [AS-260]
0.2 µM				COc1cc2[nH]c(=S)n(N)c(=O)c2cc1OC [AS-261A, 3-Amino-6,7-dimethoxy-2-thioxo-2,3-dihydroquinazolin-4(1H)-one]
0.5 µM				COC(=O)c1ccc2c(=O)n(N)c(=S)[nH]c2c1 [AS-261B]
6 µM				Nn1c(=S)[nH]c2cc(C(=O)O)ccc2c1=O [AS-262]
6 µM				COC(=O)c1ccc2c(=O)n(N(C)C)c(=S)[nH]c2c1 [AS-266]
2.5 µM				COc1cc2[nH]c(=S)n(N(C)C)c(=O)c2cc1OC [AS-268]
1 µM				COc1cc2[nH]c(=S)n(CCCCN)c(=O)c2cc1OC [AS-269]

IC50	Emax (value in parentheses)	NOX2 IC50 (concentration giving half-maximal inhibition)	% inhibition (maximum inhibition achieved at a very high concentration of the compound) (value in parentheses)	Structure (SMILES)
1 µM				COc1cc2[nH]c(=S)n(CCCO)c(=O)c2cc1OC [AS-270]
2 µM				COc1cc2[nH]c(=S)n(O)c(=O)c2cc1OC [AS-271]
0.6 µM				CCOc1cc2[nH]c(=S)n(N)c(=O)c2cc1OC [AS-278]
> 10 µM	90%			Cc1ccc(-c2csc(NC(=O)CSc3nc4ccccc4c(=O)n3CCCN(C)C)n2)cc1 [Sample T5306350]
> 10 µM	90%			CC(Sc1nc2ccccc2c(=O)n1CCCO)C(=O)Nc1nc(-c2ccccc2)cs1 (stereo not shown) [Sample T5826778]
> 10 µM	20%			O=C(CSc1nc2ccccc2c(=O)n1CCCO)Nc1nc(-c2cc(F)ccc2F)cs1 [Sample T5837596]
6.5 µM	60%			CN(C)CCCn1c(=S)[nH]c2ccccc2c1=O [TG6-17-2]
> 10 µM				Cc1csc(NC(=O)CSc2nc3ccccc3c(=O)n2CCCN(C)C)n1 [TG6-18]
4.5 µM	90%			CN(C)CCCn1c(SCC(=O)Nc2cc(-c3ccc(F)cc3)n[nH]2)nc2ccccc2c1=O [TG6-20]
> 10 µM				CN(C)CCCn1c(SCC(=O)NCc2ccco2)nc2ccccc2c1=O [TG6-23]
5.5 µM	97%			CCN(CC)CCn1c(=S)[nH]c2ccccc2c1=O [TG6-27-2]
0.2 µM				COc1ccc(N(C)CCCNC(=O)c2cc(F)ccc2N)cc1 [TG6-30-2]
0.1 µM	50%			COc1ccc(N(C)CCCn2c(=S)[nH]c3ccc(F)cc3c2=O)cc1 [TG6-30]
		Not active		CN(C)CCCn1c(=O)[nH]c2ccccc2c1=O [TG6-31]
1 µM	40%			CN1CCC(n2c(=S)[nH]c3ccccc3c2=O)CC1 [TG6-33-2]
4 µM	50%			CN(C)CCn1c(=S)[nH]c2ccccc2c1=O [TG6-35-2]
11 µM	95%			COc1ccc(-c2csc(NC(=O)CSc3nc4ccccc4c(=O)n3CCCN(C)C)n2)cc1 [TG6-36-2]
6 µM			95%	CN(C)CCCn1c(SCC(=O)Nc2nc(-c3ccc(Br)cc3)cs2)nc2ccccc2c1=O [TG6-37-2]
5 µM	50%			CN(C)CCCCCn1c(=S)[nH]c2ccccc2c1=O [TG6-41]
> 10 µM	60%			CCc1ccc(NC(=O)CSc2nc3ccccc3c(=O)n2CCCN(C)C)cc1 [TG6-43]
	95%			CN(C)CCCn1c(SCC(=O)Nc2nc(-c3cccc(F)c3)cs2)nc2ccccc2c1=O [TG6-48]
2 µM	30%			CCN(CC)CCn1c(SCC(=O)Nc2nc(-c3cccc(Br)c3)cs2)nc2ccccc2c1=O [TG6-49]

IC50	Emax (value in parentheses)	NOX2 IC50 (concentration giving half-maximal inhibition)	% inhibition (maximum inhibition achieved at a very high concentration of the compound) (value in parentheses)	Structure (SMILES)
2 µM	80%			O=c1c2ccccc2[nH]c(=S)n1CCN1CCCC1 [TG6-52]
1.5 µM	90%			O=c1c2ccccc2[nH]c(=S)n1CCN1CCCCC1 [TG6-53]
2 µM	80%			O=c1c2ccccc2[nH]c(=S)n1CCCN1CCOCC1 [TG6-54]
3 µM	60%			CN1CCN(CCCn2c(=S)[nH]c3ccccc3c2=O)CC1 [TG6-55]
		Not active		CCCN(CCC)CCn1c(=S)[nH]c2ccccc2c1=O [TG6-56]
6 µM	80%			CCN(CC)CCn1c(=S)[nH]c2ccc(Cl)cc2c1=O [TG6-57]
5 µM	90%			CN(C)CCCn1c(SCC(=O)Nc2nc(-c3cccc(Br)c3)cs2)nc2ccc(Cl)cc2c1=O [TG6-58]
3 µM	75%			CSc1nc2ccc(Cl)cc2c(=O)n1CCC[N+](C)(C)C [TG6-59]
5 µM	90%			CN(C)CCCn1c(=S)[nH]c2cc(Cl)ccc2c1=O [TG6-62]
2 µM	60%			COc1cc2[nH]c(=S)n(CCCN(C)C)c(=O)c2cc1OC [TG6-63]
1 µM	60%			CN(C)CCCn1c(=S)[nH]c2cc(F)c(F)cc2c1=O [TG6-64]
		Not active		CN(C)CCCn1c(=S)[nH]c2c(Cl)cc(Cl)cc2c1=O [TG6-65]
1.5 µM	50%			O=c1c2cc(Cl)ccc2[nH]c(=S)n1CCN1CCCCC1 [TG6-66]
1.5 µM	95%			CSc1nc2ccccc2c(=O)n1CCC[N+](C)(C)C [TG6-67]
		Not active		CN(C)CCCn1c(SC(=O)N2CCN(C)CC2)nc2ccccc2c1=O [TG6-71]
> 20 µM	50%			CC(Sc1nc2ccccc2c(=O)n1CCCN(C)C)C(=O)Nc1nc(-c2cccc(Br)c2)cs1 (stereo not shown) [TG6-73]
> 20 µM				CN(C)CCCn1c(OCC(=O)N2CCCCC2)nc2ccccc2c1=O [TG6-74]
> 20 µM				CN(C)CCCn1c(OCC(=O)N2CCOCC2)nc2ccccc2c1=O [TG6-76]
1.5 µM	60%			CN(C)CCCn1c(=S)[nH]c2ccc(F)cc2c1=O [TG6-79]
1.5 µM	70%			O=C(CSc1nc2ccccc2c(=O)n1CCN1CCCCC1)Nc1nc(-c2cccc(Br)c2)cs1 [TG6-81]
		Not active		O=C(CSc1nc2ccccc2c(=O)n1CCCN1CCOCC1)Nc1nc(-c2cccc(Br)c2)cs1 [TG6-82]
		Not active		CCSc1nc2ccccc2c(=O)n1CCCN1CCOCC1 [TG6-99-1]
